Results: patent publication US6656695B2, “Biomap characterization of biologically active agents” (Bioseek, Inc., priority 2000, dated 2003)

What was measured:
[1] = system: HUVEC cells; experiment: optimized inflammatory assay combination: HUVEC treated with TNF-α+IFN-γ+IL-1, readout parameters by cell-based ELISA (biomap); design: species or system human; conditions: for activity (alteration of the biomap) in the optimized assay combination: HUVEC, TNF-α+IFN-γ+IL-1, 24 hours, 10 μM NHGA, 200 μM PDTC, 9 μM PD098059, PPM-18 2 μM, AG126 25 μM, p55-Fc 50 ng/ml; for cellular toxicity: either drug alone at higher concentrations (2-fold) than PPM-18 2 μM / AG126 25 μM
Procedure: Primary human umbilical vein endothelial cells (HUVEC) are used. Other cells that may replace HUVEC in the screen include primary microvascular endothelial cells, aortic or arteriolar endothelial cells or endothelial cell lines such as EAhy926 or E6-[…]-5-2G cells or human telomerase reverse transcriptase-expressing endothelial cells (Simmons, J. Immunol., 148:267, 1992; Rhim, Carcinogenesis 19:673, 1998; Yang, J. Biol. Chem. 274:26141, 1999). 2×10^4 cells/ml are cultured to confluence in EGM-2 (Clonetics). Other media that may replace EGM-2 include EGM (Clonetics) and Ham's F12K medium supplemented with 0.1 mg/ml heparin and 0.03-0.05 mg/ml endothelial cell growth supplement (ECGS) and 10% FBS, or medium M199 (Life Technologies, Inc.) containing 20% fetal bovine serum and 2 ng/ml basic fibroblast growth factor (Jaffe, J. Clin. Invest. 52:2745, 1973; Hoshi, PNAS 81:6413, 1984). The disease environment present in chronic inflammatory diseases, such as Crohn's disease, differs from the normal condition by increased presence of multiple biologically active agents including IL-1, TNF-α, and IFN-γ (Woywodt, 1994; Kakazu, 1999). Other biologically active agents that may be increased in chronic inflammatory disease environments include IL-4, IL-6, IL-8, IL-12, IL-13, IL-18, TGFbeta, and histamine, as well as activated leukocytes and their products (Daig, 1996, Gut 38:216; Woywodt, 1994, Eur. cytokine Netw. 5:387; Kakazu, 1999 Am J. Gastroenterol. 94:2149; Pizarro, 1999, J. Immunol. 162:6829; Monteleone, 1999, J. Immunol. 163:143; […] Enteral Nutr 23:S20; Beck, 1999, […]. Bowel Dis. 5:44). Optimized assay combinations will contain at least two, and preferably three, four or more of these biologically active agents. […] After 24 hours, cultures are washed and evaluated for the presence of the parameters ICAM-1 (1), VCAM-1 (2), E-selectin (3), IL-8 (4), CD31 (5), HLA-DR (6) and MIG (7) by cell-based ELISA as described (Melrose, J. Immunol. 161:2457, 1998). For this, plates are blocked with 1% Blotto for 1 hr, and treated with primary antibodies (obtained from Pharmingen and Becton Dickinson) at 1 ng/ml for 2 hr. After washing, secondary peroxidase-conjugated anti-mouse IgG antibody (Promega) at 1:2500 is applied for 45 min. After washing, TMB substrate (Kierkegaard & Perry) is added and color developed. Development is stopped by addition of H2SO4 and the absorbance at 450 nm (subtracting the background absorbance at 600 nm) is read with a Molecular Dynamics plate reader. The relative expression levels of each parameter are indicated by the OD at 450 nm shown along the y-axis. The mean +/- SD from triplicate samples is shown. […] Confluent cultures of HUVEC cells are treated with TNF-α (5 ng/ml)+IFN-γ (100 ng/ml)+IL-1 (1 ng/ml) in the presence or absence of neutralizing anti-TNF-α or control antibody (Goat anti-IgG). […] In FIG. 3A, the relative expression of each parameter is shown along the y-axis as average value of the OD measured at 450 nm of triplicate samples. The mean +/- SD from triplicate samples are shown. * indicates p<0.05 comparing results obtained with anti-TNF-α to the control. […] A color-coded representation of the biomaps developed from the data is shown. […] J. Physiol. 273(2 Pt 2):[…], 1997), the corticosteroids dexamethasone and prednisolone, echinacea, AA861 (Lee, J. Immunol. 158, 3401, 1997), apigenin ([…], Am. J. Pathol. 147:278, 1995), nordihydroguaiaretic acid (NHGA) (Brennen, Biochem. […] J. Immunol. 27:2172, 1997), pyrrolidine dithiocarbamate (PDTC) (Boyle, Circulation, 98, (19 Suppl):11282, 1998), PPM-18 (Yu, Biochem. […] Biol. Chem. 273:18165, 1998), AG126 (Novogrodsky, Science 264, 1319, 1994), and neutralizing anti-TNF-α antibody. Color-coded representations of the resulting biomaps are shown. Confluent cultures of HUVEC cells are treated with TNF-α (5 ng/ml)+IFN-γ (100 ng/ml)+IL-1 (1 ng/ml) in the presence or absence of agents or buffers at the concentrations indicated in Table 1. […]

[2] = system: HUVEC cells; experiment: multiplex (secondary) assay combinations: HUVEC with single pathway activators or media, biomaps by cell-based ELISA; design: species or system human; conditions: TNF-α, IFN-γ, IL-1 alone or combined; 20 μM AA861, 10 μM NHGA; FIG. 5
Procedure: Confluent cultures of HUVEC cells are treated with TNF-α (5 ng/ml), IFN-γ (100 ng/ml), IL-1 (20 ng/ml), the combination of TNF-α+IFN-γ+IL-1, or media (no cytokine) in the presence or absence of neutralizing anti-TNF-α, 20 μM AA861 or 10 μM NHGA. After 24 hours, cultures are washed and evaluated for the cell surface expression of ICAM-1 (1), VCAM-1 (2), E-selectin (3), IL-8 (4), and MIG (5) by cell-based ELISA performed as described in FIG. 1. A color-coded representation of the resulting biomaps derived from the data is shown in FIG. 5, coded as described in FIG. 2B.
Confirmation is performed by evaluating the test agent in assay combinations that include both physiologic and alternative pathway activators. […] After 24 hours, cultures are washed and evaluated for the cell surface expression of ICAM-1 (1), VCAM-1 (2), E-selectin (3), CD31 (4), and MIG (5) by cell-based ELISA performed as described in FIG. 1. […]
In FIG. 7B, confluent cultures of HUVEC cells are treated with TNF-α (5 ng/ml), IFN-γ (100 ng/ml), IL-1 (20 ng/ml), the combination of TNF-α+IFN-γ+IL-1, or media in the presence or absence of p55-Fc. After 24 hours, cultures are washed and evaluated for the cell surface expression of ICAM-1 (1), VCAM-1 (2), E-selectin (3), IL-8 (4), and MIG (5) by cell-based ELISA performed as described in FIG. 1. […]

Row | SMILES | activity (alteration of the biomap) in the optimized assay combination [1] | cytokine signaling pathways targeted [2] | cellular toxicity [1]
1 | S=C(S)N1CCCC1 [PDTC, pyrrolidine dithiocarbamate] | altered biomaps |  | 
2 | CC(Cc1ccc(O)c(O)c1)C(C)Cc1ccc(O)c(O)c1 (centres unmarked) [NHGA, nordihydroguaiaretic acid] | altered biomaps | target multiple cytokine signaling pathways | 
3 | N#CC(C#N)=Cc1ccc([N+](=O)[O-])c(O)c1 [AG126] | active compounds |  | cellular toxicity
4 | O=C(NC1=CC(=O)c2ccccc2C1=O)c1ccccc1 [PPM-18] | active compounds |  | cellular toxicity
5 | COc1cccc(-c2cc(=O)c3ccccc3o2)c1N [PD098059] | altered biomaps |  | 
